Reference: the supplement of paper PMC10307832

Experiments:
Experiment in all cases: relative viability (nuclei count vs DMSO), 5 days (fraction); higher = more cells survive
[1] = compound: CC(C)C[C@@H](C(=O)N[C@H](C(=O)OC1CCCC1)c1ccccc1)[C@H](O)C(=O)NO [Tosedostat]
Outline: (§1)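 Hoechst staining, done together with fixation and permeabilisation, marked nuclei for 4× imaging and MetaXpress counting. This followed 5 days without medium change after lung cancer cell lines, kept overnight at 37 °C in 1536-well plates, were pinned with five library-drug doses (not always all listed) spaced by √10 on vehicle-anchored plates. Viability is the ratio of treated-well to vehicle-well nuclei, expressed as a median across plates. Plates passed only at control CV below 25% with at least one doubling.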

[2] = compound: CC1=NN=C(O1)C2=NN=C(C=C2)N3CCC(CC3)OC4=C(C=CC(=C4)F)Cl
Outline: as §1

[3] = compound: CC(C)C[C@@H](C(=O)N[C@H](C(=O)OC1CCCC1)c1ccccc1)[C@H](O)C(=O)NO [Tosedostat] + CC1(C)CCC(c2ccc(Cl)cc2)=C(CN2CCN(c3ccc(C(=O)NS(=O)(=O)c4ccc(N[C@H](CCN5CCOCC5)CSc5ccccc5)c(S(=O)(=O)C(F)(F)F)c4)cc3)CC2)C1 [Navitoclax] (partner 0.5 µM)
Outline: (§2)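 Lung cancer cell lines, seeded in 1536-well plates, were treated the following day by pin tool with a single drug or with five library-drug doses (not always all listed) in √10 steps on top of a fixed anchor-drug dose. Cells were fixed and nuclei stained in one step after 5 days, and nuclei were counted. Relative viability is the nuclei count for treated wells divided by that for vehicle wells, reported as medians of duplicate plates.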

[4] = compound: CC1=NN=C(O1)C2=NN=C(C=C2)N3CCC(CC3)OC4=C(C=CC(=C4)F)Cl + N=C(N)NC(=N)NCCc1ccccc1 [Phenformin] (partner 250 µM)
Outline: as §2

Cell Line	relative viability ([1]; 0.02 µM)	relative viability ([1]; 0.06325 µM)	relative viability ([1]; 0.2 µM)	relative viability ([1]; 0.6325 µM)	relative viability ([1]; 2 µM)	relative viability ([2]; 0.253 µM)	relative viability ([2]; 0.8 µM)	relative viability ([2]; 2.53 µM)	relative viability ([2]; 8 µM)	relative viability ([3]; first compound 0.02 µM)	relative viability ([3]; first compound 0.06325 µM)	relative viability ([3]; first compound 0.2 µM)	relative viability ([3]; first compound 0.6325 µM)	relative viability ([3]; first compound 2 µM)	relative viability ([4]; first compound 0.253 µM)	relative viability ([4]; first compound 0.8 µM)	relative viability ([4]; first compound 2.53 µM)	relative viability ([4]; first compound 8 µM)
NCI-H838	0.965	0.957	0.951	1.01	1.11	0.885	0.752	0.886	0.78	1.23	1.16	1.2	1.33	1.46	0.588	0.434	0.515	0.504
H3255	0.994	0.869	0.94	0.852	0.886	0.662	0.688	0.635	0.727	0.464	0.546	0.404	0.388	0.471	0.372	0.316	0.354	0.398
PC-14	1.14	0.951	0.962	0.928	0.806	0.896	0.778	0.817	0.846	1.03	0.999	1.04	0.994	1.06	0.656	–	0.463	0.567
NCI-H2228	1.22	1.1	0.881	0.837	0.686	0.904	0.921	0.979	0.834	1	0.856	0.781	0.961	0.793	0.313	0.257	0.294	0.401
NCI-H322M	0.898	0.964	0.877	0.762	0.834	0.929	0.881	1.02	0.819	1.17	1.11	1.19	1.14	1.02	0.759	0.742	0.846	0.731
NCI-H1944	1.01	0.921	0.928	0.889	0.853	0.429	0.487	0.515	0.466	1.1	0.975	1.08	1.02	1.01	0.183	0.187	0.196	0.183
NCI-H1793	0.815	0.88	0.92	0.913	0.79	0.877	0.776	1.02	0.755	0.402	0.463	0.402	0.449	0.4	0.402	0.385	0.37	0.315
NCI-H727	0.914	0.899	0.696	0.819	0.95	0.817	0.728	0.981	0.785	0.369	0.295	0.386	0.282	0.195	0.613	–	0.496	0.482
A549	1.05	0.945	0.922	0.929	0.815	0.69	0.611	0.575	0.541	1.37	1.15	1.14	1.19	1.01	0.158	0.0878	0.14	0.147
EKVX	0.973	0.972	0.944	0.859	0.911	0.475	0.405	0.432	0.479	0.962	0.969	0.898	0.944	0.804	0.211	0.223	0.236	0.227
EPLC-272H	1.06	0.984	0.763	0.593	0.428	0.987	0.716	0.887	0.828	1.19	1.3	0.826	0.775	0.576	0.315	0.279	0.309	0.294
NCI-H1666	1	0.933	1.02	1.08	0.999	0.707	0.844	0.835	0.782	0.864	0.946	0.98	1.39	1.05	0.509	0.57	0.555	0.584
NCI-H1395	0.894	0.938	0.972	0.889	0.78	0.823	0.762	0.813	0.882	1.06	1.19	0.905	0.917	0.886	0.453	0.398	0.439	0.429
NCI-H2405	1.16	1	0.991	0.95	0.92	0.577	0.495	0.553	0.525	1.18	0.846	0.82	0.812	0.611	0.406	0.383	0.37	0.328
NCI-H2126	0.976	1.01	1.01	0.903	0.865	0.832	0.869	0.928	0.864	0.801	0.876	0.894	0.852	0.721	0.486	0.507	0.53	0.528
NCI-H460	1.02	0.994	0.99	0.974	0.989	0.273	0.306	0.282	0.284	1.38	1.18	1.09	0.891	1.23	0.298	0.309	0.291	0.258
NCI-H1993	1	0.958	0.847	0.631	0.703	0.772	0.864	0.954	0.833	0.895	0.877	0.817	0.747	0.603	0.553	0.481	0.651	0.509
HCC-78	0.938	1.04	1	1.04	0.958	0.659	0.615	0.578	0.551	0.717	0.808	0.736	0.868	0.948	0.619	0.59	0.541	0.497
